Counter-ions that a name gives are not always drawn.
Columns and labels:
hPPARgamma = target: T1, hPPARgamma (Homo sapiens, UniProt P37231); assay: Gal4-hPPARgamma transactivation assay in COS-7 cells (luciferase); type: cell-based; conditions: for EC50: Gal4-hPPARγ(LBD) transactivation
T1 construct: Gal4-hPPARγ(LBD); Gal4 (fusion partner); expressed in transfected cells; host or cells: COS-7 (monkey kidney)
T1 sequence (P37231 238-503 limits assumed): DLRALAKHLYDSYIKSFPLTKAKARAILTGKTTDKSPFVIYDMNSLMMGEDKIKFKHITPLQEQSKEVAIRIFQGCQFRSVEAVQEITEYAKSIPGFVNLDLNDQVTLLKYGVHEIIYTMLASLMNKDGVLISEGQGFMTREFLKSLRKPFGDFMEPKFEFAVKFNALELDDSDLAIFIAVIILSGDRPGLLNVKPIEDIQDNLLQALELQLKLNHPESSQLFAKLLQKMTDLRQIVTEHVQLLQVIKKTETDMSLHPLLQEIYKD
Procedure, shortened: (§1)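 COS-7 cells transiently co-transfected with Gal4-hPPAR chimeras and a Gal4(RE)_TkpGL3 luciferase reporter (1/50 ratio) were seeded at 20,000 cells/well for 4 h, then treated in 2% lipid-free synthetic serum medium (0.1% DMSO). EC50 and Hill slope came from fitted luciferase curves. Emax is relative to fenofibrate 100 μM (α), rosiglitazone 10 μM (γ) or GW501516 1 μM (δ).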

hPPARdelta = target: T2, hPPARdelta (Homo sapiens, UniProt Q03181); assay: Gal4-hPPARdelta transactivation assay in COS-7 cells (luciferase); type: cell-based; conditions: for EC50: Gal4-hPPARδ(LBD) transactivation
T2 construct: Gal4-hPPARδ(LBD); Gal4 (fusion partner); expressed in transfected cells; host or cells: COS-7 (monkey kidney)
T2 sequence (Q03181 211-439 limits assumed): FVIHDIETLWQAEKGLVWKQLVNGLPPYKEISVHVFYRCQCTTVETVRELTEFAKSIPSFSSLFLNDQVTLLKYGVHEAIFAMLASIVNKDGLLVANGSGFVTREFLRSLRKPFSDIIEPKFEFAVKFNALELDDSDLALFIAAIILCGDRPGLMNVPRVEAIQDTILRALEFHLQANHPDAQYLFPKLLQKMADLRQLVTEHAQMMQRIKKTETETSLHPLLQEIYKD
Procedure, shortened: as §1

hPPARalpha = target: T3, hPPARalpha (Homo sapiens, UniProt Q07869); assay: Gal4-hPPARalpha transactivation assay in COS-7 cells (luciferase); type: cell-based; conditions: for EC50: Gal4-hPPARα(LBD) transactivation
T3 construct: Gal4-hPPARα(LBD); Gal4 (fusion partner); expressed in transfected cells; host or cells: COS-7 (monkey kidney)
T3 sequence (Q07869 239-466 limits assumed): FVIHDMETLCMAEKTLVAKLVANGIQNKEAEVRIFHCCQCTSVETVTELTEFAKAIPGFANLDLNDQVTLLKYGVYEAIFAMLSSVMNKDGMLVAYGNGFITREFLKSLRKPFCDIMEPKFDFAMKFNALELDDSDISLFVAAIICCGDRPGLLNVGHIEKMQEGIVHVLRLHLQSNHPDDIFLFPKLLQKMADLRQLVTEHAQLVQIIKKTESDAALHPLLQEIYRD
Procedure, shortened: as §1

[1] = maximal relative activation vs reference

| melting point [°C] | Emax (hPPARgamma; COS-7, maximal relative activation vs reference, read-out: Gal4-hPPARγ(LBD) TOP (% ref)) [%] | EC50 (hPPARgamma) [nM] | Emax (hPPARdelta; COS-7, maximal relative activation vs reference, read-out: Gal4-hPPARδ(LBD) TOP (% ref)) [%] | EC50 (hPPARdelta) [nM] | Emax (hPPARalpha; COS-7, maximal relative activation vs reference, read-out: Gal4-hPPARα(LBD) TOP (% ref)) [%] | EC50 (hPPARalpha) [nM] | Gal4-hPPARγ(LBD) TOP (% ref) (hPPARgamma; [1]) | Gal4-hPPARδ(LBD) TOP (% ref) (hPPARdelta; [1]) | Gal4-hPPARα(LBD) TOP (% ref) (hPPARalpha; [1]) | SMILES |
| --- | --- | --- | --- | --- | --- | --- | --- | --- | --- | --- |
| 133 | 68 | 44 | 84 | 40 | 44 | 239 | – | – | – | COC(c1ccc(Br)cc1)C1CC1c1cc(C)c(OC(C)(C)C(=O)O)c(C)c1 (racemic) [Cpd 1-1, 2-(4-(2-(methoxy(4-bromophenyl)methyl)cyclopropyl)-2,6-dimethylphenoxy)-2-methylpropanoic acid] |
| 155 to 156 | – | – | – | – | – | – | – | – | – | COC(c1ccc(OC(F)(F)F)cc1)C1CC1c1cc(C)c(OC(C)(C)C(=O)O)c(C)c1 (single isomer, unassigned) (as salt: TFA) [Cpd 14-1-1, 2-(4-(2-(methoxy(4-(trifluoromethoxy)phenyl)methyl)cyclopropyl)-2,6-dimethylphenoxy)-2-methylpropanoic acid] |
| 190 to 194 | – | 17 | – | 30 | – | 41 | – | – | – | COC(c1ccc(OC(F)(F)F)cc1)C1CC1c1cc(C)c(OC(C)(C)C(=O)O)c(C)c1 (single isomer, unassigned) [Cpd 14-2, 2-(4-(2-(methoxy(4-(trifluoromethoxy)phenyl)methyl)cyclopropyl)-2,6-dimethylphenoxy)-2-methylpropanoic acid] |
| – | – | 19 | – | 54 | – | 186 | 77 | 83 | 33 | COC(c1ccc(Br)cc1)C1CC1c1cc(C)c(OC(C)(C)C(=O)O)c(C)c1 (racemic) [Cpd 1-2, 2-(4-(2-(methoxy(4-bromophenyl)methyl)cyclopropyl)-2,6-dimethylphenoxy)-2-methylpropanoic acid] |
